Data reported in ChEMBL document CHEMBL3508693 (2016).

Legend:
[1] = AUC of SPP100 following single oral dose of [14C] aliskiren hemifumarate at 3 mg.Kg-1 level in marmoset; format: ADME, organism-based, Callithrix jacchus, Plasma; conditions: in vivo
[2] = % SPP100 (0-168h) recovered in urine following single oral dose of [14C] aliskiren hemifumarate at 3 mg.Kg-1 level in marmoset; format: ADME, organism-based, Callithrix jacchus; conditions: in vivo
[3] = Excretion (0-72h) of aliskiren in faeces following intravenous administration of [14C] aliskiren hemifumarate at 1 mg.Kg-1 level in marmoset; format: ADME, organism-based, Callithrix jacchus, Feces; conditions: in vivo
CYP1A2 = target: T1, CYP1A2 (Homo sapiens, UniProt P05177); experiment: Inhibitory activity of 20 uM SPP100 on 489 Pmoles of cDNA-derived CYP1A2 enzyme in microsome prepared from human lymphoblastoid cell line; format: ADME, microsomes; design: conc 20 uM, interact cpd conc 50 uM; conditions: probe phenacetin
T1 sequence (P05177 whole entry): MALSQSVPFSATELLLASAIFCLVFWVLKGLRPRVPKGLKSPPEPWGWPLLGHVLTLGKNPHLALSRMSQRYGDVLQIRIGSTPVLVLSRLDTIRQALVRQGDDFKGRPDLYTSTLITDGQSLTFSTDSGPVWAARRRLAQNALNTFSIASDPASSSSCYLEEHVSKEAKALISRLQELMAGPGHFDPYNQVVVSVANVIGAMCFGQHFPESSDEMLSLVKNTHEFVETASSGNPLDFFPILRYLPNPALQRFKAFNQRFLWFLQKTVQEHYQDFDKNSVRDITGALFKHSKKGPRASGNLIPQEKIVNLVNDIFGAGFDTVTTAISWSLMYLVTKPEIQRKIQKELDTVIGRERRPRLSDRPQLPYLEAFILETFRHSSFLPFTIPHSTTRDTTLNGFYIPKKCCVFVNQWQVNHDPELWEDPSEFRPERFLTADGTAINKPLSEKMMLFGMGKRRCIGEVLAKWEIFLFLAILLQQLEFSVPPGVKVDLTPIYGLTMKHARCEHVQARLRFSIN

[4] = % SPP100 recovered in hydrolysed following single intravenous administration of 10 mg.Kg-1 [14C] aliskiren hemifumarate in male rat; format: ADME, organism-based, HAN:WIST(SPF), Bile; conditions: in vivo
[5] = % of radioactivity recovered as aliskiren in faeces following oral administration of [14C] aliskiren hemifumarate at 100 mg.Kg-1 level in rat; format: ADME, organism-based, Albino HAN:WIST, Feces; conditions: in vivo
[6] = Total excretion of radioactivity following intravenous administration of [14C] aliskiren hemifumarate at 1 mg.Kg-1 level in marmoset; format: ADME, organism-based, Callithrix jacchus, Urine/Feces; conditions: in vivo
[7] = Excretion of radioactivity (48-72h) in faeces following single oral dose of 500 mg.Kg-1 [14C] aliskiren hemifumarate in mouse; format: ADME, organism-based, TgRasH2, Feces; conditions: in vivo
[8] = Tmax (0-96h) of total radioactivity following oral administration of [14C] aliskiren hemifumarate at 100 mg.Kg-1 level in rat; format: ADME, organism-based, Albino HAN:WIST, Plasma; conditions: in vivo
[9] = % of radioactivity (24h) recovered in bile following single intravenous administration of 10 mg.Kg-1 [14C] aliskiren hemifumarate in male rat; format: ADME, organism-based, HAN:WIST(SPF); conditions: in vivo
[10] = Elimination (0-96h) of radioactivity via biliary route following intravenous administration of [14C] aliskiren hemifumarate at 10 mg.Kg-1 level in rat; format: ADME, organism-based, Albino HAN:WIST, Bile; conditions: in vivo
[11] = Mean excretion of radioactivity (24-48h) in urine and faeces following single oral dose of 100 mg.Kg-1 [14C] aliskiren hemifumarate in rat; format: ADME, organism-based, Albino HAN:WIST, Urine/Feces; conditions: in vivo
[12] = Excretion of radioactivity (0-96h) in urine following single intravenous dose of 10 mg.Kg-1 [14C] aliskiren hemifumarate in rat; format: ADME, organism-based, Albino HAN:WIST; conditions: in vivo
[13] = Excretion of radioactivity (0-96h) in faeces following single oral dose of 100 mg.Kg-1 [14C] aliskiren hemifumarate in rat; format: ADME, organism-based, Albino HAN:WIST, Feces; conditions: in vivo
[14] = Concentration of radioactivity in the liver following repeated oral administration of [14C] aliskiren hemifumarate at 100 mg.Kg-1 level studied at 2h after 3rd dose in rat; format: ADME, organism-based, Albino HAN:WIST; conditions: in vivo
[15] = Concentration of radioactivity in the brown fat following repeated oral administration of [14C] aliskiren hemifumarate at 100 mg.Kg-1 level studied at 2h after 3rd dose in rat; format: ADME, organism-based, Albino HAN:WIST, Brown adipose tissue; conditions: in vivo
[16] = AUC (0-96 or 0-168h) of total radioactivity following single intravenous administration of [14C] aliskiren hemifumarate at 1 mg.Kg-1 level in marmoset; format: ADME, organism-based, Callithrix jacchus, Plasma; conditions: in vivo
[17] = Cmax of aliskiren hemifumarate following 8 day once-daily dosing of SPP100B oral solution at 640 mg level studied on day 8 in men; format: ADME, organism-based; conditions: male, human, plasma
[18] = Tmax of unlabeled aliskiren hemifumarate following single oral dose of aliskiren hemifumarate at 500 mg.Kg-1 level in mouse; format: ADME, organism-based; conditions: TgRasH2, mouse, plasma
[19] = Cmax (0-96h) of unlabeled aliskiren hemifumarate following oral administration of aliskiren hemifumarate at 100 mg.Kg-1 level in rat; format: ADME, organism-based; conditions: Albino HAN:WIST, plasma
[20] = Effect of 2 week oral dosing of aliskiren hemifumarate at 100 mg.Kg-1 level on plasma magnesium level in male Callithrix jacchus; format: toxicity, organism-based; conditions: marmoset, 336 h
[21] = Cmax of aliskiren hemifumarate following 2 week oral dosing of aliskiren hemifumarate at 100 mg.Kg-1 level studied on day 1 in male Callithrix jacchus; format: ADME, organism-based; conditions: marmoset, plasma
[22] = Cmax of aliskiren hemifumarate following 2 week oral dosing of aliskiren hemifumarate at 50 mg.Kg-1 level studied on day 14 in male Callithrix jacchus; format: ADME, organism-based; conditions: marmoset, plasma
[23] = AUC/dose (0-96h) of unlabeled aliskiren hemifumarate following oral administration of aliskiren hemifumarate at 100 mg.Kg-1 level in rat; format: ADME, organism-based, Albino HAN:WIST, Plasma; conditions: in vivo
[24] = Effect of 4 week oral dietary dosing of aliskiren hemifumarate at 1000 mg.Kg-1 level on spermatogenesis in male mouse; format: toxicity, organism-based, CB6F1-TGrasH2, Testis; conditions: in vivo, 672 h
[25] = Tmax of aliskiren hemifumarate following 4 week oral dietary dosing of aliskiren hemifumarate at 500 mg.Kg-1 level in male mouse; format: ADME, organism-based; conditions: CB6F1-TGrasH2, mouse, in vivo
[26] = Cmax of aliskiren hemifumarate following 4 week oral dietary dosing of aliskiren hemifumarate at 2000 mg.Kg-1 level in male mouse; format: ADME, organism-based; conditions: CB6F1-TGrasH2, mouse, in vivo
[27] = Cmax of aliskiren hemifumarate following 4 week oral dietary dosing of aliskiren hemifumarate at 500 mg.Kg-1 level in female mouse; format: ADME, organism-based; conditions: CB6F1-TGrasH2, mouse, in vivo
[28] = Tmax of aliskiren hemifumarate following 2 week oral dosing of aliskiren hemifumarate at 50 mg.Kg-1 level studied on day 1 in female Callithrix jacchus; format: ADME, organism-based; conditions: marmoset, plasma
[29] = Tmax of aliskiren hemifumarate following 2 week oral dosing of aliskiren hemifumarate at 100 mg.Kg-1 level studied on day 14 in male Callithrix jacchus; format: ADME, organism-based; conditions: marmoset, plasma
[30] = Tmax of aliskiren hemifumarate following 2 week oral dosing of aliskiren hemifumarate at 10 mg.Kg-1 level studied on day 14 in female Callithrix jacchus; format: ADME, organism-based; conditions: marmoset, plasma
[31] = AUC(0-24h) of aliskiren hemifumarate following 2 week oral dosing of aliskiren hemifumarate at 50 mg.Kg-1 level studied on day 1 in male Callithrix jacchus; format: ADME, organism-based; conditions: marmoset, plasma
[32] = AUC(0-24h) of aliskiren hemifumarate following 2 week oral dosing of aliskiren hemifumarate at 100 mg.Kg-1 level studied on day 14 in male Callithrix jacchus; format: ADME, organism-based; conditions: marmoset, plasma
[33] = Cmin of aliskiren hemifumarate following repeated oral administration of [14C] aliskiren hemifumarate at 100 mg.Kg-1 level studied at steady state during a dosing interval in rat; format: ADME, organism-based, Albino HAN:WIST; conditions: in vivo

`COCCCOc1cc(C[C@@H](C[C@H](N)[C@@H](O)C[C@H](C(=O)NCC(C)(C)C(N)=O)C(C)C)C(C)C)ccc1OC` gave an AUC [1] of 868 ng·h/mL, a Compound recovery [2] of 2.3% and a Compound recovery [3] of 36%. For the same compound, the inhibition at 20 µM (CYP1A2) was 5%, the Compound recovery [4] was 61.8% and the Compound recovery [5] was > 40%.
For `COCCCOc1cc(C[C@@H](C[C@H](N)[C@@H](O)C[C@H](C(=O)NCC([14CH3])([14CH3])C(N)=O)C(C)C)C(C)C)ccc1OC.O=C(O)/C=C/C(=O)O`, the Radiolabel recovery [6] was 83.1%, the Radiolabel recovery [7] was 0.16% and the Tmax [8] was 15 min. For the same compound, the Tmax ([8]; iv, 10 mg/kg) was 4.98 min, the Radiolabel recovery [9] was 70% and the Radiolabel recovery [10] was “OUTCOME = Observed/Elimination of radioactivity was mainly via biliary route”. For the same compound, the Radiolabel recovery [11] was 40.2%, the Radiolabel recovery [12] was 94.4% and the Radiolabel recovery [13] was 4.2%. The Radiolabel recovery [14] was “OUTCOME = Detected”, the Radiolabel recovery [15] was “OUTCOME = Detected” and the AUC [16] was 52.92 µmol·h/L.
In the case of `COCCCOc1cc(C[C@@H](C[C@H](N)[C@@H](O)C[C@H](C(=O)NCC(C)(C)C(N)=O)C(C)C)C(C)C)ccc1OC.COCCCOc1cc(C[C@@H](C[C@H](N)[C@@H](O)C[C@H](C(=O)NCC(C)(C)C(N)=O)C(C)C)C(C)C)ccc1OC.O=C(O)/C=C/C(=O)O` [ALISKIREN FUMARATE], the Cmax [17] is reported as 335 ng/mL, the Tmax [18] is reported as 1 h and the Cmax [19] is reported as 270 nM. For the same compound, the “Plasma magnesium_CHANGE_BY” value [20] was 130%, the Cmax [21] was 7200 ng/mL and the Cmax [22] was 12300 ng/mL. The AUC normalised [23] was 0.03 (umol.h/L)/(mg/kg), the Change in spermatogenesis [24] was “OUTCOME = No abnormalities. No animals died during the study” and the Tmax [25] was 3 h. For the same compound, the Cmax [26] was 439 ng/mL, the Cmax [27] was 63.8 ng/mL and the Tmax [28] was 1 h. For the same compound, the Tmax [29] was 2 h, the Tmax [30] was 1 h and the AUC(0-t) at 24 h [31] was 58100 ng·h/mL. The AUC at 24 h [32] was 109 µg·h/mL and the “Cmin(ss)” value [33] was 4.54 nmol/L.
